Results reported in ChEMBL document CHEMBL4359906, “Design and synthesis of new N-terminal fatty acid modified-antimicrobial peptide analogues with potent in vitro biological activity” (Eur J Med Chem, 2019).
≈ marks a conversion by molar mass, not a printed value. Calls of active or inactive are those of the source. The calls are words filed in the database; no cut-off is given here. Where a SMILES comes first, the peptide text is derived from it.

Experiments:
[1] = tested on: Bacillus subtilis; assay: Antibacterial activity against Bacillus subtilis ATCC 23857 after 18 hrs by CLSI based broth microdilution method; type: functional; conditions: ATCC 23857, 18 h
[2] = tested on: Escherichia coli; assay: Antibacterial activity against Escherichia coli ATCC 43837 after 18 hrs by CLSI based broth microdilution method; type: functional; conditions: ATCC 43837, 18 h
[3] = tested on: Staphylococcus aureus; assay: Antibacterial activity against methicillin-resistant Staphylococcus aureus 936 after 18 hrs by CLSI based broth microdilution method; type: functional; conditions: Staphylococcus aureus, 936, 18 h
[4] = tested on: Klebsiella pneumoniae; assay: Antibacterial activity against Klebsiella pneumoniae ATCC 700603 after 18 hrs by CLSI based broth microdilution method; type: functional; conditions: Klebsiella pneumoniae, 700603, 18 h
[5] = tested on: Pseudomonas aeruginosa; assay: Antibacterial activity against Pseudomonas aeruginosa ATCC 27853 after 18 hrs by CLSI based broth microdilution method; type: functional; conditions: ATCC 27853, 18 h
[6] = tested on: Staphylococcus aureus; assay: Antibacterial activity against Staphylococcus aureus ATCC 25923 after 18 hrs by CLSI based broth microdilution method; type: functional; conditions: ATCC 25923, 18 h
[7] = tested on: Escherichia coli; assay: Antibacterial activity against Escherichia coli ATCC 25922 after 18 hrs by CLSI based broth microdilution method; type: functional; conditions: ATCC 25922, 18 h
[8] = tested on: Escherichia coli; assay: Ratio of MIC for antibacterial activity against Escherichia coli ATCC 25922 after 15 passages to MIC for antibacterial activity against Escherichia coli ATCC 25922 incubated for 18 hrs; type: functional
[9] = tested on: Escherichia coli; assay: Antibacterial activity against Escherichia coli ATCC 25922 at 0.5 times MIC incubated for 18 hrs measured at 1 passages by CLSI based broth microdilution method; type: functional, organism-based
[10] = tested on: Staphylococcus aureus; assay: Antibacterial activity against Staphylococcus aureus ATCC 25923 after 18 hrs in presence of KCl by CLSI based broth microdilution method (reference value: 64 microM); type: functional; conditions: ATCC 25923, 18 h
[11] = tested on: Escherichia coli; assay: Antibacterial activity against Escherichia coli ATCC 25922 after 18 hrs in presence of KCl by CLSI based broth microdilution method (reference value: 64 microM); type: functional; conditions: ATCC 25922, 18 h
[12] = tested on: Escherichia coli; assay: Induction of membrane disruption in Escherichia coli ATCC 25922 assessed as corrugated membrane surface at 4 times of MIC after 2 hrs by SEM analysis; type: functional, organism-based
[13] = tested on: Staphylococcus aureus; assay: Antibacterial activity against Staphylococcus aureus ATCC 25923 after 18 hrs in presence of FeCl3 by CLSI based broth microdilution method (reference value: 64 microM); type: functional; conditions: ATCC 25923, 18 h
[14] = tested on: Escherichia coli; assay: Ratio of antibacterial activity against Escherichia coli ATCC 25922 in presence of NaCl to antibacterial activity against Escherichia coli ATCC 25922; type: functional
[15] = tested on: Escherichia coli; assay: Antimicrobial activity against Escherichia coli ATCC 25922 at 1 mM preincubated for 6 hrs in presence of 0.2 ug/ml trypsin and measured after 18 hrs by microplate reader analysis; type: functional, organism-based
[16] = tested on: Escherichia coli; assay: Potentiation of rifampicin-induced antibacterial activity against Escherichia coli ATCC 25922 assessed as FICI after 18 hrs by checker board assay; type: functional
[17] = tested on: Staphylococcus aureus; assay: Antibiofilm activity against Staphylococcus aureus ATCC 25923 at 1 to 2 times of MIC after 24 hrs by crystal violet staining based assay; type: functional, organism-based
[18] = tested on: Escherichia coli; assay: Ratio of antibacterial activity against Escherichia coli ATCC 25922 in presence of FeCl3 to antibacterial activity against Escherichia coli ATCC 25922; type: functional
[19] = tested on: Klebsiella pneumoniae; assay: Potentiation of rifampicin-induced antibacterial activity against Klebsiella pneumoniae ATCC 700603 assessed as FICI after 18 hrs by checker board assay; type: functional
[20] = Selectivity index, ratio of MHC10 for human RBC to geometric mean of peptide MIC for gram positive bacteria; type: toxicity; conditions: human red blood cells, read-out: Selectivity Index
[21] = tested on: Escherichia coli; assay: Ratio of antibacterial activity against Escherichia coli ATCC 25922 in presence of KCl to antibacterial activity against Escherichia coli ATCC 25922; type: functional
[22] = tested on: Escherichia coli; assay: Induction of membrane disruption in Escherichia coli ATCC 25922 assessed as degeneration in membrane at 4 times of MIC after 2 hrs by SEM analysis; type: functional, organism-based
[23] = tested on: Escherichia coli; assay: Antimicrobial activity against Escherichia coli ATCC 25922 preincubated for 1 hr in presence of 10% mouse serum and measured after 18 hrs by CLSI-based broth microdilution assay (reference value: 64 microM); type: functional
[24] = tested on: Pseudomonas aeruginosa; assay: Potentiation of polymyxin B-induced antibacterial activity against Pseudomonas aeruginosa ATCC 27853 assessed as FICI after 18 hrs by checker board assay; type: functional
[25] = tested on: Escherichia coli; assay: Disruption of membrane integrity in Escherichia coli ATCC 25922 assessed as membrane damage by measuring PI fluorescence at 4 times of MIC incubated for 1 hr by PI dye based flow cytometric analysis (reference value: 1.35%); type: functional
[26] = tested on: Escherichia coli; assay: Antimicrobial activity against Escherichia coli ATCC 25922 at 1 mM preincubated for 6 hrs in presence of 2 ug/ml chymotrypsin and measured after 18 hrs by microplate reader analysis; type: functional, organism-based
[27] = tested on: Escherichia coli; assay: Induction of ROS generation in Escherichia coli ATCC 25922; type: functional, organism-based
[28] = tested on: Escherichia coli; assay: Ratio of MIC for Escherichia coli ATCC 25922 preincubated for 6 hrs in presence of 10% mouse serum and measured after 18 hrs to MIC for antibacterial activity against Escherichia coli ATCC 25922 after 18 hrs; type: functional
[29] = tested on: Escherichia coli; assay: Antibacterial activity against Escherichia coli ATCC 25922 after 18 hrs in presence of MgCl2 by CLSI based broth microdilution method (reference value: 64 microM); type: functional; conditions: ATCC 25922, 18 h
[30] = tested on: Klebsiella pneumoniae; assay: Potentiation of polymyxin B-induced antibacterial activity against Klebsiella pneumoniae ATCC 700603 assessed as FICI after 18 hrs by checker board assay; type: functional
[31] = tested on: Staphylococcus aureus; assay: Ratio of antibacterial activity against Staphylococcus aureus ATCC 25923 in presence of NaCl to antibacterial activity against Staphylococcus aureus ATCC 25923; type: functional
[32] = tested on: Erythrocyte; assay: Hemolytic activity in human RBC measured after 1 hr by microplate reader analysis; type: ADME, cell-based
[33] = tested on: Escherichia coli; assay: Ratio of MIC for Escherichia coli ATCC 25922 preincubated for 1 hr in presence of 10% mouse serum and measured after 18 hrs to MIC for antibacterial activity against Escherichia coli ATCC 25922 after 18 hrs; type: functional
[34] = tested on: Escherichia coli; assay: Potentiation of polymyxin B-induced antibacterial activity against Escherichia coli ATCC 25922 assessed as FICI after 18 hrs by checker board assay; type: functional
[35] = tested on: Escherichia coli; assay: Ratio of antibacterial activity against Escherichia coli ATCC 25922 in presence of MgCl2 to antibacterial activity against Escherichia coli ATCC 25922; type: functional
[36] = tested on: Escherichia coli; assay: Disruption of membrane integrity in Escherichia coli ATCC 25922 assessed as membrane damage by measuring PI fluorescence at 2 times of MIC incubated for 1 hr by PI dye based flow cytometric analysis (reference value: 1.35%); type: functional
[37] = tested on: Staphylococcus aureus; assay: Antibacterial activity against Staphylococcus aureus ATCC 25923 after 18 hrs in presence of MgCl2 by CLSI based broth microdilution method (reference value: 64 microM); type: functional; conditions: ATCC 25923, 18 h
[38] = Selectivity index, ratio of MHC10 for human RBC to geometric mean of peptide MIC for gram negative bacteria; type: toxicity; conditions: human red blood cells, read-out: Selectivity Index
[39] = tested on: Escherichia coli; assay: Antibacterial activity against Escherichia coli ATCC 25922 after 18 hrs in presence of NaCl by CLSI based broth microdilution method (reference value: 64 microM); type: functional; conditions: ATCC 25922, 18 h
[40] = tested on: Escherichia coli; assay: Induction of membrane disruption in Escherichia coli ATCC 25922 assessed as rough membrane surface at 4 times of MIC after 2 hrs by SEM analysis; type: functional, organism-based
[41] = tested on: Staphylococcus aureus; assay: Ratio of antibacterial activity against Staphylococcus aureus ATCC 25923 in presence of KCl to antibacterial activity against Staphylococcus aureus ATCC 25923; type: functional
[42] = tested on: Pseudomonas aeruginosa; assay: Potentiation of rifampicin-induced antibacterial activity against Pseudomonas aeruginosa ATCC 27853 assessed as FICI after 18 hrs by checker board assay; type: functional
[43] = tested on: Staphylococcus aureus; assay: Ratio of antibacterial activity against Staphylococcus aureus ATCC 25923 in presence of FeCl3 to antibacterial activity against Staphylococcus aureus ATCC 25923; type: functional
[44] = tested on: Staphylococcus aureus; assay: Antibacterial activity against Staphylococcus aureus ATCC 25923 after 18 hrs in presence of NaCl by CLSI based broth microdilution method (reference value: 64 microM); type: functional; conditions: ATCC 25923, 18 h
[45] = tested on: Escherichia coli; assay: Antibacterial activity against Escherichia coli ATCC 25922 after 18 hrs in presence of FeCl3 by CLSI based broth microdilution method (reference value: 64 microM); type: functional; conditions: ATCC 25922, 18 h
[46] = tested on: Escherichia coli; assay: Antimicrobial activity against Escherichia coli ATCC 25922 preincubated for 6 hrs in presence of 10% mouse serum and measured after 18 hrs by CLSI-based broth microdilution assay (reference value: 64 microM); type: functional
[47] = tested on: Escherichia coli; assay: Induction of membrane disruption in Escherichia coli ATCC 25922 assessed as fracture in membrane at 4 times of MIC after 2 hrs by SEM analysis; type: functional, organism-based
[48] = tested on: Staphylococcus aureus; assay: Ratio of antibacterial activity against Staphylococcus aureus ATCC 25923 in presence of MgCl2 to antibacterial activity against Staphylococcus aureus ATCC 25923; type: functional

Q: Which results are given for `CO[C@H]1/C=C/O[C@@]2(C)Oc3c(C)c(O)c4c(O)c(c(/C=N/N5CCN(C)CC5)c(O)c4c3C2=O)NC(=O)/C(C)=C\C=C\[C@H](C)[C@H](O)[C@@H](C)[C@@H](O)[C@@H](C)[C@H](OC(C)=O)[C@@H]1C` [RIFAMPIN]?
A: MIC [1]: < 1 µM; MIC [2]: 2 µM (≈ 1.65 µg/mL); MIC [3]: < 1 µM; MIC [4]: 32 µM (≈ 26.3 µg/mL); MIC [5]: 32 µM (≈ 26.3 µg/mL); MIC [6]: < 1 µM; MIC [7]: 4 µM (≈ 3.29 µg/mL); Ratio [8]: >32; Activity [9]: Active

Q: What does the source list for `CC[C@H](C)[C@H](NC(=O)[C@H](CCCNC(=N)N)NC(=O)[C@H](CCCCN)NC(=O)[C@H](CC(C)C)NC(=O)[C@H](CC(C)C)NC(=O)CN)C(=O)N[C@@H](CCCCN)C(=O)N[C@H](C(=O)N[C@@H](CC(C)C)C(=O)N[C@@H](CC(C)C)C(N)=O)[C@@H](C)O` [ANOPLIN] (H-GLLKRIKTLL-NH2)?
A: MIC [1]: 8 µM (≈ 9.23 µg/mL); MIC [2]: 8 µM (≈ 9.23 µg/mL); MIC [10]: 64 µM; MIC [11]: 32 µM; Activity [12]: Active; MIC [13]: 128 µM; Ratio [14]: 2 - 4; MIC [3]: 64 µM (≈ 73.8 µg/mL); MIC [4]: 64 µM (≈ 73.8 µg/mL); Activity [15]: inactive; fractional inhibitory concentration index (FICI) [16]: 0.125; inhibition [17]: Active; Ratio [18]: 2 - 4; fractional inhibitory concentration index (FICI) [19]: 0.125; selectivity ratio [20]: 11.3; Ratio [21]: 2 - 4; Activity [22]: Active; MIC [5]: 16 µM (≈ 18.5 µg/mL); MIC [23]: 64 µM; fractional inhibitory concentration index (FICI) [24]: 0.3125; Activity [25]: 62.1%; Activity [26]: inactive; Activity [27]: inactive; Ratio [28]: >2; MIC [29]: 32 µM; fractional inhibitory concentration index (FICI) [30]: 0.3125; Ratio [31]: 2 - 4; MHC10 [32]: > 256 µM; Ratio [33]: 1; fractional inhibitory concentration index (FICI) [34]: 0.1875; Ratio [35]: 2 - 4; Activity [36]: 20.4%; MIC [37]: > 128 µM; MIC [6]: 64 µM (≈ 73.8 µg/mL); selectivity ratio [38]: 13.5; MIC [39]: 128 µM; Activity [40]: Active; Ratio [41]: 2 - 4; fractional inhibitory concentration index (FICI) [42]: 0.1875; MIC [7]: 64 µM (≈ 73.8 µg/mL); Ratio [43]: 2 - 4; MIC [44]: > 128 µM; MIC [45]: 32 µM; MIC [46]: > 128 µM; Activity [47]: Active; Ratio [48]: 2 - 4
